Laboratory results: patent US11773420B2, “Process for enzymatic hydrolysis of lignocellulosic material and fermentation of sugars” (VERSALIS S.P.A., priority 2014, dated 2023)

Test system: cellulase enzyme cocktail TEC210
Experiment: Effect of gluconic acid on enzymatic hydrolysis of pretreated corn stover by TEC210
Assay type: biochemical, Rasamsonia
Details: for Glucose release (in %): 6% w/w dm, pH 4.5, 62° C., 50 hours, 5 mg TEC210/g dm
Description: Twenty grams of pretreated corn stover were incubated in a 50 ml Greiner test tube for 50 hours at a dry matter level of 6% w/w, pH 4.5 at 62° C. in the presence of 5 mg of the cellulase enzyme cocktail TEC210 per gram of dry matter and in the presence of 0, 2, 4, 6, or 8 g/l gluconic acid to determine the inhibiting effect of gluconic acid on the hydrolysis of glucan in lignocellulosic feedstock. The experiment is performed at maximum oxygen saturation.
Samples were taken after 50 hours of incubation and the samples were centrifuged for further analysis in an Eppendorf centrifuge type 5810 for 8 minutes at 4000 rpm. The glucose concentration was measured in the supernatant of each sample by means of HPLC using a Bio-Rad HPX87H column. The glucose release as presented in Table 3 is a direct measure for the enzymatic hydrolysis (glucan hydrolysis). A gluconic acid level of 2 g/l in the supernatant corresponds with 89 g/kg glucan in the lignocellulosic material. This can be calculated as described above with a density of 1.02 kg/I, a pellet factor of 2% and a glucan content of 21.6 g glucan/kg hydrolysate.

Structure (SMILES): O=C(O)[C@H](O)[C@@H](O)[C@H](O)[C@H](O)CO [Gluconic acid, gluconic acid]
- Glucose release (in %) (gluconic acid added 2 g/l (89 g/kg glucan)): 90%
- Glucose release (in %) (gluconic acid added 4 g/l (178 g/kg glucan)): 82%
- Glucose release (in %) (gluconic acid added 6 g/l (267 g/kg glucan)): 79%
- Glucose release (in %) (gluconic acid added 8 g/l (356 g/kg glucan)): 77%
- effect on glucan hydrolysis (higher concentrations of gluconic acid): negative effect on glucan hydrolysis
